Read-outs that look alike come from different tables or passages of the source.
What was measured:
[1] = Aqueous solubility by HPLC in H2O, 5% glucose and 0.9% NaCl; assay type: physicochemical; details: for solubility: 24 °C, room temperature (23–25 °C), n = 3, read-out: maximum solubility
[2] = target: T1, hKv4.3 current (Ito, KCND3) (Homo sapiens, UniProt Q9UK17); experiment: Whole-cell patch clamp of hKv4.3 current in HEK 293 cells; assay type: cell-based; details: 30 μM, at +50 mV, n = 5
T1 construct: expressed in transfected cells
T1 sequence (Q9UK17 1-655): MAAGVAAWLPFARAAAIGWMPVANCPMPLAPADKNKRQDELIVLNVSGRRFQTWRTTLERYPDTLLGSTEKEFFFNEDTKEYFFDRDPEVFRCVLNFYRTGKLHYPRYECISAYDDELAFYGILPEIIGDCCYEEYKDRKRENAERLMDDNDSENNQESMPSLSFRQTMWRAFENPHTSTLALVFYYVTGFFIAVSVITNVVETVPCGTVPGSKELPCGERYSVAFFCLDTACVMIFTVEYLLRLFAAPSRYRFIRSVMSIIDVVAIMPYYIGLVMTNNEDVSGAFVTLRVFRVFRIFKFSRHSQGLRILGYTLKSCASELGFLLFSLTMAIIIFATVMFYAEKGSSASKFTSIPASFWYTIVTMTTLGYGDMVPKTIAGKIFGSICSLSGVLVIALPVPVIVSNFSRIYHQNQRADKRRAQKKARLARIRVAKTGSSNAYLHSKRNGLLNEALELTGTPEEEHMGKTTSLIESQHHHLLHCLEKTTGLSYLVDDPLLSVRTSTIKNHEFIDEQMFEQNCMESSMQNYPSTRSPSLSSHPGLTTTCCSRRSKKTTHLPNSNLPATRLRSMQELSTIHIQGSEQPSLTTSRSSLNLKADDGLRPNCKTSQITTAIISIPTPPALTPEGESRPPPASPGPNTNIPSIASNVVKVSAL
Description: Whole-cell currents of hKv1.5 and hKv4.3 were recorded in established HEK 293 cell lines stably expressing hKv1.5 (KCN5A) and hKv4.3 (KCND3) and IKACh was determined in isolated rat atrial myocytes as described previously[12][31][32] and in Supplemental Materials. […]
Effects of acacetin prodrug on cardiac potassium currents
Whole-cell currents of hKv1.5 and hKv4.3 were recorded in established HEK 293 cell lines stably expressing hKv1.5 (KCN5A) and hKv4.3 (KCND3).1, 2 The cells were cultured in Dulbecco’s modified eagle’s medium (DMEM, Invitrogen, Hong Kong) supplemented with 10% fetal bovine serum and 400 µg/mL G418. Cells on a coverslip were transferred to an open cell chamber (0.5 ml) mounted on the stage of an inverted microscope and superfused with Tyrode’s solution at 2 mL/min. The whole cell patch-clamp technique was used as described previously.1, 2 The whole-cell membrane currents were measured using an EPC-10 amplifier and Pulse software (Heka Elektronik, Lambrecht, Germany). Borosilicate glass electrodes (1.2-mm OD) were pulled with a Brown/Flaming puller (model P-97, Sutter Instrument, Nato, CA) and had resistances of 1.5~2.5 MΩ when filled with the pipette solution. A 3-M KCl agar bridge was used as the reference electrode. The tip potential was zeroed before the patch pipette contacted the cell. […]

[3] = Ex vivo bioconversion of acacetin prodrug in rat liver microsome; assay type: in vitro ADME; details: 37 °C, n = 3
Description: The ex vivo bioconversion of acacetin prodrug was determined in rat plasma or rat hepatic microsome that contains high content alkaline phosphatase, as described previously[30] and in Supplemental Materials. The in vivo bioconversion of acacetin prodrug was determined in beagle dogs as described in Supplemental Materials. […]
Bioconversion of acacetin prodrug was also determined in rat hepatic microsomes containing high content alkaline phosphatase,5 as described previously.6 Sprague-Dawley rat liver microsomes were purchased from Invitrogen (Hong Kong, China). The reaction mixture was prepared in 50 mM Tris-HCl buffer (pH = 7.4) with 1 mM NADPH (nicotinamide adenine dinucleotide phosphate) and 0.5 mg/mL (total protein) microsomes. Prodrug solutions were added to the microsomes reaction mixture with a final concentration of 5 µg/mL. The reaction solution was incubated in a water bath at 37℃ and shaken at 60 rpm for 1 h. The samples were collected at 0, 1, 2, 15, 30 and 60 min. The reaction was terminated by adding 200 μL cold methanol containing internal standard (pentamethylquercetin, 50 ng/ml). After centrifugation at 12000 g for 30 min, the supernatant was immediately analyzed by HPLC. […]

## COc1ccc(-c2cc(=O)c3c(O)cc(OP(=O)([O-])[O-])cc3o2)cc1.[Na+].[Na+] [acacetin prodrug, phosphate sodium salt of acacetin]
[1]; saline or isotonic, in 0.9% NaCl
  solubility: 88.6 ± 4.3 mg/mL
[1]; saline or isotonic, in 5% glucose
  solubility: 91.4 ± 2.7 mg/mL
[1]; water, in H2O
  solubility: 126 ± 2.5 mg/mL
[1]; in 5% glucose or 0.9% NaCl
  solubility higher compared to parent compound acacetin: more than forty five thousand folds higher
[1]; in H2O
  solubility higher compared to parent compound acacetin: more than 1.9 million folds
[2]
  inhibition of hKv4.3 current: no significant inhibition
[3]; 1 min incubation
  prodrug converted into acacetin: 60%
[3]; 30 min incubation
  prodrug converted into acacetin: 100%

Source: paper PMC4861903, “Synthesis of a highly water-soluble acacetin prodrug for treating experimental atrial fibrillation in beagle dogs” (Scientific Reports, 2016)
